IC50, inhibition in vivo and EC50 data for 10 molecules are collected here from patent publication US9518038B2, “Condensation product of theanine derivative and carboxylic acid coumarin derivative, its intermediate, preparation method and use thereof” (SHANDONG YINGDONG YINGHAO BIOTECHNOLOGY, INC., priority 2012, dated 2016).

For assay [1], the system named is human lung cancer cells H460. As to the kind of experiment: MTT growth inhibition, H460 cells. Type of assay: cell-based. The following applies: NCI-H460, 72 h after treatment, read-out: Drug concentration (IC50) at which 50% cancer cells survived.
Assay [2] relates to human breast cancer cells MDA-MB-231. Put plainly: MTT growth inhibition, MDA-MB-231 cells. Type of assay: cell-based. The following applies: 72 h after treatment, read-out: Drug concentration (IC50) at which 50% cancer cells survived.
The test system of a further assay is mouse melanoma cells B16. Put plainly: MTT growth inhibition, B16 cells. Type of assay: cell-based. The following applies: Mus musculus, 72 h after treatment, read-out: Drug concentration (IC50) at which 50% cancer cells survived.
The subject of assay [3] is human breast cancer cells MCF-7 xenograft. As to the kind of experiment: In-vivo growth of MCF-7 xenografts in nude mice. Set-up: species or system BALB/c nude mice. The following applies: Mus musculus, MCF7, ip, vs DMSO solvent control, read-out: Curative effect (inhibition rate %) of tumor weight; for inhibition in vivo at 60 mg/kg: 60 mg/kg intraperitoneal once a day; for inhibition in vivo at 90 mg/kg: 90 mg/kg intraperitoneal once a day. The protocol: (§1) RPMI1640 and DMEM culture solutions: Hyclone Company; inactivated fetal bovine serum: Hyclone Company, preserved at −20° C.; trypsin: Amersco Company; and 0.4% trypan blue: Sigma Company;
(§2) (3) Observation of growth of tumors in nude mice: the activities (including food intake, traits of urine and stool, mental state and the like) of the nude mice and the tumor growth time and growth situation of the transplanted tumors were observed every day, the body weight and the size of the tumors were measured once every 2-3 days. The long diameter a and the short diameter b (mm) of each tumor were measured by a vernier caliper to calculate the volume, wherein the volume V=π1/2·ab^2 (mm^3);
(§3) (4) sacrifice of animals: the mice were anesthetized and photoed after treatment experiments; the nude mice were sacrificed by breaking neck, the tumor tissues were stripped under sterile conditions and the weight of the tumors was weighed; and the effects of the drugs on pathology and toxicity of the various organs and tissues were detected.

The subject of assay [4] is human pancreatic cancer cells PANC-1 xenograft. Put plainly: In-vivo growth of PANC-1 xenografts in nude mice. Also on record: species or system BALB/c nude mice. The following applies: Mus musculus, ip, vs DMSO solvent control, read-out: Curative effect (inhibition rate %) of tumor weight; for inhibition in vivo at 60 mg/kg: 60 mg/kg intraperitoneal once a day; for inhibition in vivo at 90 mg/kg: 90 mg/kg intraperitoneal once a day. On the procedure: as §1, §2, §3

The next assay concerns Bcl-2/Bax. As to the kind of experiment: Western Blotting, Bcl-2/Bax level. The following applies: human liver cancer cells, Lewis lung cancer cells and other cancer cell lines and tumor tissues, read-out: Effective concentration (IC50) for inhibition of Bcl-2/Bax. Type of assay: cell-based. An excerpt:
(§4) Antibodies: primary antibodies of VEGFR, EGFR, c-Met, K-Ras, H-Ras, Akt, NF-κB, Cyclin D1, ER-alpha, Dvl-1, Dvl-2, Dvl-3, MMP-9, MMP2, β-catenin, Bcl-2, Bax, p53, p21, E-cadherin and Caspase3 protein, purchased from American Cell Signaling Technology Company and Santa Cruz Technology Company; and H3 acetylation, H4 acetylation and HDAC (HDAC3, HDAC4 and the like) Antibody Sample Kits, purchased from Cell Signaling Technology Company of the U.S.
(§5) (3) polyacrylamide gel electrophoresis (SDS-PAGE): an equal amount of protein lysate sample was used to separate protein, film transfer, and blocking, treated with appropriate primary antibodies and secondary antibodies in sequence, and the film was washed, then the color was developed with ECL kit, and a blot protein band was detected by exposure of an X-ray film; and a Gel-Pro Analyzer was used for quantitative analysis of gray degree, optical density value of the control group and the drug treatment group in various concentration were respectively compared with that of internal reference, the obtained ratios were respectively compared with the control group, and the protein expression level was semi-quantified.
Background: Immunoblotting shows a protein as a band on a membrane.

The next assay relates to NF-κB. As to the kind of experiment: Western Blotting, NF-κB level. Type of assay: cell-based. The following applies: human liver cancer cells, Lewis lung cancer cells and other cancer cell lines and tumor tissues, read-out: Effective concentration (IC50) for inhibition of NF-κB.
Excerpt: as §4, §5

The next assay has as its system Dvl-1. As to the kind of experiment: Western Blotting, Dvl-1 level. Type of assay: cell-based. The following applies: human liver cancer cells, Lewis lung cancer cells and other cancer cell lines and tumor tissues, read-out: Effective concentration (IC50) for inhibition of Dvl-1.
Excerpt: as §4, §5

A further assay relates to c-Met. Put plainly: Western Blotting, c-Met level. Type of assay: cell-based. The following applies: human liver cancer cells, Lewis lung cancer cells and other cancer cell lines and tumor tissues, read-out: Effective concentration (IC50) for inhibition of c-Met.
Excerpt: as §4, §5

In a further assay the test system is p21. Put plainly: Western Blotting, increase of p21 level. The following applies: liver cancer cells, Lewis lung cancer cells and other cancer cell lines and tumor tissue protein lysates, 48 h treatment, read-out: Effective concentration to increase p21 by 50%. Type of assay: cell-based.
Excerpt: as §4, §5

The test system of another assay is Caspase3. As to the kind of experiment: Western Blotting, increase of Caspase3 level. Type of assay: cell-based. The following applies: liver cancer cells, Lewis lung cancer cells and other cancer cell lines and tumor tissue protein lysates, 48 h treatment, read-out: Effective concentration to increase Caspase-3 by 50%.
Excerpt: as §4, §5

For `CCNC(=O)CCC(NC(=O)c1cc2cc(F)ccc2oc1=O)C(=O)OCC` (stereo in doubt) [Compound Ie, (R)-2-(6-F-2-oxo-2H-benzopyran-3-carboxamido)-5-ethylamino-5-oxo-pentanoic acid ethyl ester], the IC50 in assay [1] was 100 µM; in [2], 90 µM; in the assay on mouse melanoma cells B16, 230 µM; in the assay on Bcl-2/Bax, less than 180 µM; in the assay on NF-κB, less than 60 µM; in the assay on Dvl-1, less than 150 µM. In the assay on c-Met, the IC50 is less than 145 µM. Also, the inhibition in vivo at 60 mg/kg in assay [3] worked out at 66.8%; in [4] it was 56.6%. In addition, the inhibition in vivo at 90 mg/kg was determined as 69.8% in assay [3] and 64.6% in assay [4]. The EC50 with p21 and in the assay on Caspase3 was less than 100 µM each time.

With `CCNC(=O)CCC(NC(=O)c1cc2cc([N+](=O)[O-])ccc2oc1=O)C(=O)OCC` (stereo in doubt) [Compound If, (R)-2-(6-nitro-2-oxo-2H-benzopyran-3-carboxamido)-5-ethylamino-5-oxo-pentanoic acid ethyl ester], the IC50 in assay [1] was 100 µM; in assay [2], 110 µM; with mouse melanoma cells B16, 280 µM; with Bcl-2/Bax, less than 90 µM; with NF-κB it was less than 60 µM; in the assay on Dvl-1, less than 200 µM. Moreover, in the assay on c-Met, the IC50 is less than 141 µM. Further, the inhibition in vivo at 60 mg/kg in assay [3] was 68.6%; in assay [4], 53.6%. Further, the inhibition in vivo at 90 mg/kg in [3] worked out at 72.6%; in [4], 67.3%. The EC50 in the assay with p21 was less than 65 µM; in the assay with Caspase3 it was less than 80 µM.

Turning to `CCNC(=O)CC[C@H](N)C(=O)OC` [Compound IIa, theanine methyl ester], the values for the IC50 (in assay [1]; in assay [2]; in the assay with mouse melanoma cells B16) were 500 ± 40 µM, 480 µM and 450 µM, respectively. In addition, the inhibition in vivo at 60 mg/kg in assay [3] was 39.8%; in assay [4] it was 33.4%. Moreover, the inhibition in vivo at 90 mg/kg in assay [3] came to 41.3%; in assay [4], 37.7%.

Take `CCNC(=O)CC[C@H](N)C(=O)OCC` [Compound IIb, theanine ethyl ester]: the IC50 was determined as 400 ± 10 µM in assay [1], 400 µM in assay [2] and 500 µM in the assay with mouse melanoma cells B16. Moreover, the inhibition in vivo at 60 mg/kg in assay [3] was 43.2%; in [4] it was 32.3%. The inhibition in vivo at 90 mg/kg in assay [3] was determined as 46.8%; in assay [4] it was 34.8%.

Regarding `CCNC(=O)CCC(NC(=O)c1cc2ccccc2oc1=O)C(=O)OC` (stereo not drawn) [Compound Ia, methyl 5-ethylamino-5-oxo-2-(2-oxo-2H-benzopyran-3-carboxamido)pentanoate], the IC50 in assay [1] is 230 µM; in assay [2], 240 µM; with mouse melanoma cells B16, 145 µM; in the assay on Bcl-2/Bax it was less than 125 µM; in the assay on NF-κB, less than 125 µM; in the assay on Dvl-1, less than 135 µM. Further, the IC50 in the assay on c-Met is less than 160 µM. In addition, the values for the inhibition in vivo at 60 mg/kg in [3] and in [4] were 50.1% and 55.8%, respectively. Further, the inhibition in vivo at 90 mg/kg in assay [3] stood at 61.3%; in assay [4], 60.5%. For the same molecule, the EC50 in the assay on p21 and with Caspase3 was less than 125 µM in each case.

In the case of `CCNC(=O)CCC(NC(=O)c1cc2ccccc2oc1=O)C(=O)OCC` (stereo not drawn) [Compound Ib, ethyl 5-ethylamino-5-oxo-2-(2-oxo-2H-benzopyran-3-carboxamido)pentanoate], the IC50 in [1] was 113 µM; in assay [2], 109 µM; in the assay on mouse melanoma cells B16, 110 µM; in the assay on Bcl-2/Bax, less than 120 µM; in the assay with NF-κB it was less than 120 µM; with Dvl-1, less than 300 µM. Also, in the assay with c-Met, the IC50 is less than 155 µM. Further, the values for the inhibition in vivo at 60 mg/kg in assay [3] and in assay [4] were 52.6% and 54.6%, respectively. Further, the results for the inhibition in vivo at 90 mg/kg in assay [3] and in assay [4] were 63.8% and 65.9%, respectively. Moreover, the EC50 in the assay on p21 and in the assay with Caspase3 was less than 120 µM in each case.

On to `CCNC(=O)CC[C@@H](NC(=O)c1cc2cc(Cl)ccc2oc1=O)C(=O)OCC` [Compound Ic, (R)-2-(6-CI-2-oxo-2H-benzopyran-3-carboxamido)-5-ethylamino-5-oxo-pentanoic acid ethyl ester], for which the IC50 in [1] was 106 ± 50 µM; in assay [2], 87 µM; in the assay on mouse melanoma cells B16, 125 µM; in the assay on Bcl-2/Bax, less than 100 µM; in the assay on NF-κB, less than 100 µM; with Dvl-1, less than 250 µM. Moreover, the inhibition in vivo at 60 mg/kg was determined as 58.6% in [3] and 56.5% in assay [4]. The values for the inhibition in vivo at 90 mg/kg in assay [3] and in assay [4] were 68.8% and 66.7%, respectively. Moreover, the EC50 in the assay on p21 and in the assay on Caspase3 was less than 100 µM throughout.

For the molecule `CCNC(=O)CC[C@@H](NC(=O)c1cc2cc(Br)ccc2oc1=O)C(=O)OCC` [Compound Id, (R)-2-(6-Br-2-oxo-2H-benzopyran-3-carboxamido)-5-ethylamino-5-oxo-pentanoic acid ethyl ester], the IC50 in assay [1] is 101 µM; in assay [2] it was 91 µM; in the assay with mouse melanoma cells B16 it was 120 µM; in the assay with Bcl-2/Bax, less than 100 µM; in the assay with NF-κB, less than 80 µM; in the assay with Dvl-1, less than 250 µM. Further, the IC50 with c-Met was less than 150 µM. For the same molecule, the inhibition in vivo at 60 mg/kg was determined as 56.6% in assay [3] and 54.2% in assay [4]. The inhibition in vivo at 90 mg/kg was 66.9% in assay [3] and 64.8% in assay [4]. The EC50 in the assay on p21 and in the assay with Caspase3 was less than 100 µM in each case.

In the case of `CCNC(=O)CC[C@@H](NC(=O)c1cc2cc(Cl)cc(Cl)c2oc1=O)C(=O)OCC` [Compound Ig, (R)-2-(6,8-dichloro-2-oxo-2H-benzopyran-3-carboxamido)-5-ethylamino-5-oxo-pentanoic ethyl ester], the IC50 in [1] was 93 µM; in assay [2] it was 92 µM; in the assay with mouse melanoma cells B16, 125 µM; in the assay with Bcl-2/Bax it was less than 70 µM; in the assay on NF-κB it was less than 100 µM; in the assay with Dvl-1, less than 125 µM. Also, the IC50 with c-Met was less than 150 µM. For the same molecule, the results for the inhibition in vivo at 60 mg/kg in [3] and in assay [4] were 65.7% and 55.6%, respectively. Besides, the inhibition in vivo at 90 mg/kg amounted to 76.9% in [3] and 68.9% in assay [4]. Moreover, the EC50 in the assay on p21 and with Caspase3 was less than 70 µM throughout.

As for `CCNC(=O)CC[C@@H](NC(=O)c1cc2cc(Br)cc(Br)c2oc1=O)C(=O)OCC` [Compound Ih, (R)-2-(6,8-dibromo-2-oxo-2H-benzopyran-3-carboxamido)-5-ethylamino-5-oxo-pentanoic ethyl ester], the IC50 in assay [1] is 109 µM; in assay [2], 98 µM; in the assay on mouse melanoma cells B16, 146 µM; in the assay with Bcl-2/Bax it was less than 70 µM; with NF-κB it was less than 100 µM; with Dvl-1 it was less than 250 µM. Further, the IC50 in the assay on c-Met was less than 500 µM. Besides, the inhibition in vivo at 60 mg/kg in assay [3] stood at 58.9%; in assay [4], 51.3%. For the same molecule, the values for the inhibition in vivo at 90 mg/kg in [3] and in assay [4] were 75.9% and 67.3%, respectively. In addition, the EC50 is less than 100 µM in the assay on p21 and less than 70 µM in the assay with Caspase3.
